Reference: the SangsterLogP compilation

In order of rising logP:
1. Cc1cc(=O)oc2ccc(O[C@@H]3O[C@H](CO)[C@@H](O)[C@H](O)[C@H]3O)cc12  -0.66
2. O=[N+]([O-])c1ccc(O[C@@H]2O[C@H](CO)[C@H](O)[C@H](O)[C@H]2O)cc1  -0.63
3. C[C@H](N)[C@H](O)c1ccccc1 (relative stereo)  0.67
4. NC1CCc2ccccc2C1O (stereo not drawn)  0.81
5. OC(c1ccccc1)C(O)c1ccccc1 (stereo not drawn)  1.91
6. NC1C2CCC1c1ccccc12 (stereo not drawn)  2.01
7. NC1C2CCC1c1ccccc1C2 (stereo not drawn)  2.04
8. CCC(=O)OC1(c2ccccc2)CCN(C)CC1C (stereo not drawn)  2.43
9. CC(=O)OC1(c2ccccc2)CCN(C)C(C)C1C (stereo not drawn)  2.51
10. COc1cccc([C@]2(O)CCCC[C@H]2CN(C)C)c1 (relative stereo)  2.51
11. COc1ccccc1/C=C/C(=O)O  2.54
12. C=C[C@H]1CN2CC[C@H]1C[C@@H]2[C@@H](O)c1ccnc2ccccc12  2.68
13. CCC(=O)OC1(c2ccccc2)CCN(C)C(C)C1C (stereo not drawn)  2.97
14. C=CCC1CN(C)CCC1(OC(=O)CC)c1ccccc1 (stereo not drawn)  2.97
15. CCC(=O)O[C@]1(c2ccccc2)C[C@H](C)N(C)C[C@H]1C  3.13
16. NC1C2CCC1c1cccc(C(F)(F)F)c1C2 (stereo not drawn)  3.41
17. NC1C2CCC1c1cc(C(F)(F)F)ccc1C2 (stereo not drawn)  3.45
18. NC1C2CCC1c1ccc(C(F)(F)F)cc1C2 (stereo not drawn)  3.54
